The text below walks through data of publication PMC9736855, “Discovery of 3-Amino-1H-pyrazole-Based Kinase Inhibitors to Illuminate the Understudied PCTAIRE Family” (International Journal of Molecular Sciences, 2022).

Structures are written as SMILES.

One assay has as its target T1, CDK16 (Homo sapiens, UniProt Q00536).
T1 construct: purchased in-house DSF panel (SGC Frankfurt)
The experiment in a line: DSF. Format: binding. The note with it: 10 μM compound. The source says:
(§1) To investigate the selectivity profile of the different series, a differential scanning fluorimetry (DSF) assay was used. This assay offers a rapid and sensitive screening method that determines the denaturation temperature of a protein in absence and presence of a compound. This assay format measures the fluorescence of a dye, which depends on the folding state of the protein. The difference between the melting temperature (ΔTm) in the absence and presence of the compound represents the binding strength to the protein.
(§2) Measurements were performed in duplicates.

The next assay concerns the target T2, CDK2 (Homo sapiens, UniProt P24941).
T2 construct: purchased in-house DSF panel (SGC Frankfurt)
The experiment in a line: DSF. The note with it: 10 μM compound. Format: binding.
Description: as §1, §2

The next assay addresses T3, CDK16/Cyclin Y (Homo sapiens, UniProt Q00536).
T3 construct: Full-length kinases were obtained as plasmids cloned in frame with a terminal NanoLuc-fusion; CS1810C178 (CCNY); host or cells: HEK293T
Put plainly: NanoBRET. Format: cell-based. The note with it: Figure 7, 11-point dose-response in duplicates; read-out: NanoBRET EC50 ± SEM against CDK16. The protocol: Next, to specifically quantify the outcome of the cellular activity of the compounds, a NanoBRET cellular target engagement assay was performed. The determination of the cellular potency on CDK16 correlated well with the corresponding DSF assay data (Figure S2). […] As mentioned before, the exchange from a methyl ester to an iso-propyl or tert-butyl ester led to a higher stabilization of the kinase in the DSF assay, which correlated with an increase in cellular potency as determined in the NanoBRET assay. […] The number of potential off-targets was low with 1 and 2 kinases with ΔTm >5 °C (Figure 4), highlighting these inhibitors for more comprehensive selectivity studied within the CDK and particular the TAIRE subfamily.
The assay was performed as described previously. In brief: Full-length kinases were obtained as plasmids cloned in frame with a terminal NanoLuc-fusion (Promega, Madison, WI, USA), as specified in table (Table S6). Plasmids were transfected into HEK293T cells using FuGENE HD (Promega, E2312) and proteins were allowed to express for 20h. Serially diluted inhibitor and NanoBRET Kinase Tracer (Promega) at a concentration determined previously as the KD,app (Table S5) were pipetted into white 384-well plates (Greiner 781207) using an Echo acoustic dispenser (Labcyte, San Jose, CA, USA). The corresponding protein-transfected cells were added and reseeded at a density of 2.5 × 10^5 cells/mL after trypsinization and resuspending in Opti-MEM without phenol red (Life Technologies, Carlsbad, CA, USA). The system was allowed to equilibrate for 2 h at 37 °C/5% CO2 prior to BRET measurements. To measure BRET, NanoBRET NanoGlo Substrate + Extracellular NanoLuc Inhibitor (Promega, N2540) was added as per the manufacturer’s protocol, and filtered luminescence was measured on a PHERAstar plate reader (BMG Labtech, Ortenberg, Germany) equipped with a luminescence filter pair (450 nm BP filter (donor) and 610 nm LP filter (acceptor)). Competitive displacement data were then graphed using GraphPad Prism 9 software using a normalized 3-parameter curve fit with the following equation: Y = 100/(1 + 10^(X–LogEC50)).
(In general: BRET reads energy transfer from a luciferase to a nearby fluorophore.)

The target of another assay is GSK3B (Homo sapiens, UniProt P49841). The experiment in a line: DSF. Further details: purchased in-house DSF panel (SGC Frankfurt). The following applies: 10 μM compound. Format: binding.
Description: as §1, §2

The ΔTm is the change in melting temperature against a reference sample. What is called EC50 is the concentration that produces a half-maximal response.

T3 sequence (Q00536 whole entry, the tested form may be a part): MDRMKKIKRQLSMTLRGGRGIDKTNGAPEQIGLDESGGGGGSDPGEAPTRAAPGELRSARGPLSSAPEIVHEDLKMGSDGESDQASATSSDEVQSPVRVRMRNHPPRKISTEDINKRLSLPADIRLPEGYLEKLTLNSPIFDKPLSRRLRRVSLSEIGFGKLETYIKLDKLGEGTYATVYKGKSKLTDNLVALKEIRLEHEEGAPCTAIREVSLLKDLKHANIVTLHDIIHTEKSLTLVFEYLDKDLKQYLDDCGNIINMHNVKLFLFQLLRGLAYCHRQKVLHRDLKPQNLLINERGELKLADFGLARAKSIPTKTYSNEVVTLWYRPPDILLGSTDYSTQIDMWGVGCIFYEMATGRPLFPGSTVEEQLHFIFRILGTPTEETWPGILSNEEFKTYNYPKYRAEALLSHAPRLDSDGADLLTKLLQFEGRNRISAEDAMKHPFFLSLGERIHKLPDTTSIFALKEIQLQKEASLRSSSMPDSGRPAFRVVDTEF
T3 sequence (Q8ND76 2-341 partner limits assumed): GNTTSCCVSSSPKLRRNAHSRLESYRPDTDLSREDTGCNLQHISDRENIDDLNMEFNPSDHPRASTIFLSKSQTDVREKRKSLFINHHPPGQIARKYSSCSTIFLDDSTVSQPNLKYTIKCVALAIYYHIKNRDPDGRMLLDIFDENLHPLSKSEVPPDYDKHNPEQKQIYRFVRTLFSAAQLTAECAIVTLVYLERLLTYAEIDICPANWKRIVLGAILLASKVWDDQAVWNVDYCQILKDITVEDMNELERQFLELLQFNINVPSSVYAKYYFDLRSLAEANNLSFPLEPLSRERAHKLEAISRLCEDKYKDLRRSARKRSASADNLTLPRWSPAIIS
T1 sequence (Q00536 163-478): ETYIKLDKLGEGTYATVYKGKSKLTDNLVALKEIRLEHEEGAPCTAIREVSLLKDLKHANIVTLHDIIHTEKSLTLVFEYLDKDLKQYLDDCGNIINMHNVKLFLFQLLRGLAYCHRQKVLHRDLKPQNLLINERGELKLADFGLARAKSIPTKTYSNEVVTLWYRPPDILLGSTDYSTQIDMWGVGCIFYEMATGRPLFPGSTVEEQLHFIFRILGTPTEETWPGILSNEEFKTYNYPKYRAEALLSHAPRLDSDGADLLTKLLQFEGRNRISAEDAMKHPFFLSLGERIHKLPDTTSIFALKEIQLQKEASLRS
Sequence of GSK3B (P49841 35-386): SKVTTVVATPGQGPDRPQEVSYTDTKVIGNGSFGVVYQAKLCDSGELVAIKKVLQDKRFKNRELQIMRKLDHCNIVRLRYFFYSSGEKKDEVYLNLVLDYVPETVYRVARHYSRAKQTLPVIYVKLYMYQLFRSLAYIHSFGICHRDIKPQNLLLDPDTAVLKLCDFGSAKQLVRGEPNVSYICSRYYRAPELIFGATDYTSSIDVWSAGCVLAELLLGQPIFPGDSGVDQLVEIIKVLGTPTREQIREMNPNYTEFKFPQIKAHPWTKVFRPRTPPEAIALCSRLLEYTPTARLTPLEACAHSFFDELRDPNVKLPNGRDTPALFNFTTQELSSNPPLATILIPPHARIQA

In the case of `COC(=O)c1cc(Nc2ccnc(NCc3ccc(CNC(=O)OC(C)(C)C)cc3)n2)[nH]n1` [21g, methyl 5-((2-((4-(((tert-butoxycarbonyl)amino)methyl)benzyl)amino)pyrimidin-4-yl)amino)-1H-pyrazole-3-carboxylate], the thermal shift (ΔTm) at 10 µM on CDK16 worked out at 5.3 ± 0.1 °C; on CDK2 it was 3.3 ± 0.1 °C; at GSK3B, 7.7 ± 0.1 °C. Further, on CDK16/Cyclin Y, the EC50 is 879 ± 5.5 nM.
For `Cc1cnc(Nc2ccc(CCNC(=O)OC(C)(C)C)cc2)nc1Nc1cc(C2CC2)n[nH]1` [12a, tert-butyl 4-((4-((3-cyclopropyl-1H-pyrazol-5-yl)amino)-5-methylpyrimidin-2-yl)amino)-phenethylcarbamate], the thermal shift (ΔTm) at 10 µM on CDK16 is 6.2 ± 0.1 °C; at CDK2, 8.7 ± 0.1 °C; at GSK3B, 5.7 ± 0.2 °C. Besides, the concentration for a half-maximal effect (EC50) on CDK16/Cyclin Y stood at 172 ± 20.9 nM.
On to `CC(C)(C)OC(=O)NCCc1ccc(Nc2nccc(Nc3cc(C4CC4)n[nH]3)n2)cc1` [11a, tert-butyl 4-((4-((3-cyclopropyl-1H-pyrazol-5-yl)amino)pyrimidin-2-yl)amino)phenethyl-carbamate], for which the figures for the shift in melting temperature (ΔTm) at 10 µM on CDK16, on CDK2 and on GSK3B were 8.7 °C, 12.3 °C and 8.2 ± 0.1 °C, respectively. Further, the half-maximal effective concentration (EC50) on CDK16/Cyclin Y was 35 nM.
For `COC(=O)c1cc(Nc2nc(Nc3cccc(CCNC(=O)OC(C)(C)C)c3)ncc2Cl)[nH]n1` [22b, methyl 5-((2-((3-(2-((tert-butoxycarbonyl)amino)ethyl)phenyl)amino)-5-chloropyrimidin-4-yl)amino)-1H-pyrazole-3-carboxylate] the same measures were 0.8 ± 0.1 °C, 2.1 ± 0.1 °C, 3.9 ± 0.6 °C and 3190 ± 589 nM.
The like results for `COC(=O)c1cc(Nc2nc(Nc3ccc(CCNC(=O)OC(C)(C)C)cc3)ncc2Cl)[nH]n1` [22a, methyl 5-((2-((4-(2-((tert-butoxycarbonyl)amino)ethyl)phenyl)amino)-5-chloropyrimidin-4-yl)amino)-1H-pyrazole-3-carboxylate] were, in that order, 0.3 ± 0.1 °C, 2 ± 0.3 °C, 3.3 ± 0.5 °C and 1860 ± 276 nM.
The like results for `Cc1cnc(NCCCCCNC(=O)OC(C)(C)C)nc1Nc1cc(C2CC2)n[nH]1` [12c, tert-butyl (5-((4-((3-cyclopropyl-1H-pyrazol-5-yl)amino)-5-methylpyrimidin-2-yl)amino)-pentyl)carbamate] were, in that order, 6.5 ± 0.1 °C, 7.2 ± 0.2 °C, 6.1 ± 0.1 °C and 176 ± 3 nM.
With `COC(=O)c1cc(Nc2nc(NCCCCCNC(=O)OC(C)(C)C)nc3ccccc23)[nH]n1` [23c, methyl 5-((2-((5-((tert-butoxycarbonyl)amino)pentyl)amino)quinazolin-4-yl)amino)-1H-pyrazole-3-carboxylate], the values for the ΔTm at 10 µM on CDK16, at CDK2 and on GSK3B were 3.4 ± 0.1 °C, 1.3 ± 0.5 °C and 4.2 °C, respectively. Moreover, the concentration for a half-maximal effect (EC50) at CDK16/Cyclin Y amounted to 4600 ± 385 nM.
The like results for `CNC(=O)c1cc(Nc2ccnc(Nc3ccc(CC#N)cc3)n2)[nH]n1` [41c, 5-((2-((4-(cyanomethyl)phenyl)amino)pyrimidin-4-yl)amino)-N-methyl-1H-pyrazole-3-carboxamide] were, in that order, 1.4 ± 0.4 °C, 2.7 ± 0.2 °C, 9.3 ± 0.1 °C and 5550 ± 636 nM.
The like results for `Cc1cnc(Nc2cccc(CCNC(=O)OC(C)(C)C)c2)nc1Nc1cc(C2CC2)n[nH]1` [12b, tert-butyl 3-((4-((3-cyclopropyl-1H-pyrazol-5-yl)amino)-5-methylpyrimidin-2-yl)amino)-phenethylcarbamate] were, in that order, 3.7 ± 0.1 °C, 4.7 °C, 5.1 °C and 1100 ± 44.5 nM.
For `COC(=O)c1cc(Nc2nc(NCCCCCNC(=O)OC(C)(C)C)ncc2Cl)[nH]n1` [22c, methyl 5-((2-((5-((tert-butoxycarbonyl)amino)pentyl)amino)-5-chloropyrimidin-4-yl)amino)-1H-pyrazole-3-carboxylate] the same measures were 1 ± 0.1 °C, 1.5 ± 0.1 °C, 4.8 ± 0.2 °C and 8320 ± 227 nM.
Consider `Cc1cc(Nc2ccnc(Nc3ccc(CCNC(=O)OC(C)(C)C)cc3)n2)[nH]n1` [38a, tert-butyl 4-((4-((3-methyl-1H-pyrazol-5-yl)amino)pyrimidin-2-yl)amino)phenethyl-carbamate], for which the shift in melting temperature (ΔTm) at 10 µM is 5.7 ± 0.2 °C on CDK16, 10.7 ± 0.1 °C on CDK2 and 10.4 ± 0.1 °C at GSK3B. For the same molecule, on CDK16/Cyclin Y, the EC50 stood at 388 ± 32 nM.
With `Cc1cnc(NCCCCCCNC(=O)OC(C)(C)C)nc1Nc1cc(C2CC2)n[nH]1` [12e, tert-butyl (6-((4-((3-cyclopropyl-1H-pyrazol-5-yl)amino)-5-methylpyrimidin-2-yl)amino)hexyl)carbamate], the ΔTm at 10 µM was 6.3 °C at CDK16, 8.1 ± 0.4 °C at CDK2 and 5.8 ± 0.2 °C at GSK3B. Also, the EC50 on CDK16/Cyclin Y amounted to 191 ± 5.9 nM.
As for `CNC(=O)c1cc(Nc2ccnc(Nc3ccc(CCNC(=O)OC(C)(C)C)cc3)n2)[nH]n1` [41a, tert-butyl 4-((4-((3-(methylcarbamoyl)-1H-pyrazol-5-yl)amino)pyrimidin-2-yl)amino)-phenethylcarbamate], the figures for the ΔTm at 10 µM at CDK16, on CDK2 and at GSK3B were 0.9 °C, 1.2 ± 0.2 °C and 2.9 °C, respectively. Moreover, the EC50 on CDK16/Cyclin Y amounted to 4160 ± 274 nM.
Take `Cc1cnc(NCCOCCNC(=O)OC(C)(C)C)nc1Nc1cc(C2CC2)n[nH]1` [12d, tert-butyl (2-(2-((4-((3-cyclopropyl-1H-pyrazol-5-yl)amino)-5-methylpyrimidin-2-yl)amino)ethoxy)ethyl)carbamate]: the shift in melting temperature (ΔTm) at 10 µM worked out at 5.8 ± 0.1 °C on CDK16, 5.3 °C on CDK2 and 6.6 °C at GSK3B. The EC50 at CDK16/Cyclin Y was 619 ± 32 nM.
For `COC(=O)c1cc(Nc2nc(NCCOCCNC(=O)OC(C)(C)C)ncc2Cl)[nH]n1` [22d, methyl 5-((2-((2-(2-((tert-butoxycarbonyl)amino)ethoxy)ethyl)amino)-5-chloropyrimidin-4-yl)amino)-1H-pyrazole-3-carboxylate] the same measures were 0.2 ± 0.2 °C, 0.2 °C, 2.1 ± 0.1 °C and 25000 ± 4220 nM.
For `CC(C)(C)OC(=O)NCCc1cccc(Nc2nccc(Nc3cc(C4CC4)n[nH]3)n2)c1` [11b, tert-butyl 3-((4-((3-cyclopropyl-1H-pyrazol-5-yl)amino)pyrimidin-2-yl)amino)phenethyl-carbamate] the same measures were 6.3 ± 0.3 °C, 8.2 ± 0.1 °C, 7.2 ± 0.2 °C and 124 ± 10.4 nM.
With `COC(=O)c1cc(Nc2nc(NCCCCCCNC(=O)OC(C)(C)C)ncc2Cl)[nH]n1` [22e, methyl 5-((2-((6-((tert-butoxycarbonyl)amino)hexyl)amino)-5-chloropyrimidin-4-yl)amino)-1H-pyrazole-3-carboxylate], the thermal shift (ΔTm) at 10 µM on CDK16 amounted to 0.2 ± 0.3 °C; at CDK2, 0.7 °C; at GSK3B it was 2.9 ± 0.1 °C. Besides, the concentration giving a half-maximal response (EC50) on CDK16/Cyclin Y was 12090 ± 65 nM.
Take `CC(=O)NCCCCCCNc1nccc(Nc2cc(C3CC3)n[nH]2)n1` [compound 15, N-(6-((4-((3-cyclopropyl-1H-pyrazol-5-yl)amino)pyrimidin-2-yl)amino)hexyl)acetamide]: the ΔTm at 10 µM at CDK16 came out at 8.8 ± 0.1 °C; at CDK2 it was 11.3 °C; on GSK3B it was 7.9 ± 0.1 °C. The concentration giving a half-maximal response (EC50) at CDK16/Cyclin Y was determined as 100 ± 7 nM.
For `CC(C)(C)OC(=O)NCc1ccc(CNc2nccc(Nc3cc(C4CC4)n[nH]3)n2)cc1` [11f, tert-butyl 4-(((4-((3-cyclopropyl-1H-pyrazol-5-yl)amino)pyrimidin-2-yl)amino)methyl)-benzylcarbamate] the same measures were 7.6 ± 0.2 °C, 8.4 ± 0.1 °C, 6.3 ± 0.1 °C and 110 ± 9.7 nM.
